Assay results from the NIST ThermoML archive (doi:10.1016/j.tca.2012.02.017).
± gives the expanded uncertainty stated by the source.

Experiments:
[1] = molar heat capacity at constant pressure; xn = mol fraction of the nth substance listed; settings: 101 kPa, Liquid, Large sample (1 g) DSC
[2] = molar heat capacity at constant pressure; settings: 101.33 kPa, Liquid, Large sample (1 g) DSC

CC(O)COC(C)COC(C)CO (stereo unspecified) [2-[2-(2-hydroxypropoxy)propoxy]-1-propanol] + O
molar heat capacity at constant pressure ([1]; 303.15 K, x1 = 0.2): 158.9 ± 3.9 J/K/mol | molar heat capacity at constant pressure ([1]; 303.15 K, x1 = 0.4): 234.7 ± 5.7 J/K/mol | molar heat capacity at constant pressure ([1]; 303.15 K, x1 = 0.5): 271.9 ± 6.7 J/K/mol | molar heat capacity at constant pressure ([1]; 303.15 K, x1 = 0.6): 309 ± 7.6 J/K/mol | molar heat capacity at constant pressure ([1]; 303.15 K, x1 = 0.8): 381.4 ± 9.3 J/K/mol | molar heat capacity at constant pressure ([1]; 308.15 K, x1 = 0.2): 160.5 ± 3.9 J/K/mol | molar heat capacity at constant pressure ([1]; 308.15 K, x1 = 0.4): 237.2 ± 5.8 J/K/mol | molar heat capacity at constant pressure ([1]; 308.15 K, x1 = 0.5): 275.1 ± 6.7 J/K/mol | molar heat capacity at constant pressure ([1]; 308.15 K, x1 = 0.6): 312.1 ± 7.6 J/K/mol | molar heat capacity at constant pressure ([1]; 308.15 K, x1 = 0.8): 385.8 ± 9.5 J/K/mol | molar heat capacity at constant pressure ([1]; 313.15 K, x1 = 0.2): 162.2 ± 4 J/K/mol | molar heat capacity at constant pressure ([1]; 313.15 K, x1 = 0.4): 240 ± 5.9 J/K/mol | molar heat capacity at constant pressure ([1]; 313.15 K, x1 = 0.5): 278.1 ± 6.8 J/K/mol | molar heat capacity at constant pressure ([1]; 313.15 K, x1 = 0.6): 315.6 ± 7.7 J/K/mol | molar heat capacity at constant pressure ([1]; 313.15 K, x1 = 0.8): 389.6 ± 9.5 J/K/mol | molar heat capacity at constant pressure ([1]; 318.15 K, x1 = 0.2): 163.4 ± 4 J/K/mol | molar heat capacity at constant pressure ([1]; 318.15 K, x1 = 0.4): 241.6 ± 5.9 J/K/mol | molar heat capacity at constant pressure ([1]; 318.15 K, x1 = 0.5): 280.9 ± 6.9 J/K/mol | molar heat capacity at constant pressure ([1]; 318.15 K, x1 = 0.6): 317.9 ± 7.8 J/K/mol | molar heat capacity at constant pressure ([1]; 318.15 K, x1 = 0.8): 392.4 ± 9.6 J/K/mol | molar heat capacity at constant pressure ([1]; 323.15 K, x1 = 0.2): 164.9 ± 4 J/K/mol | molar heat capacity at constant pressure ([1]; 323.15 K, x1 = 0.4): 244.5 ± 6 J/K/mol | molar heat capacity at constant pressure ([1]; 323.15 K, x1 = 0.5): 283.2 ± 6.9 J/K/mol | molar heat capacity at constant pressure ([1]; 323.15 K, x1 = 0.6): 321.6 ± 7.9 J/K/mol | molar heat capacity at constant pressure ([1]; 323.15 K, x1 = 0.8): 396.3 ± 9.7 J/K/mol | molar heat capacity at constant pressure ([1]; 328.15 K, x1 = 0.2): 166.2 ± 4.1 J/K/mol | molar heat capacity at constant pressure ([1]; 328.15 K, x1 = 0.4): 246.6 ± 6 J/K/mol | molar heat capacity at constant pressure ([1]; 328.15 K, x1 = 0.5): 286.1 ± 7 J/K/mol | molar heat capacity at constant pressure ([1]; 328.15 K, x1 = 0.6): 324.7 ± 8 J/K/mol | molar heat capacity at constant pressure ([1]; 328.15 K, x1 = 0.8): 400.5 ± 9.8 J/K/mol | molar heat capacity at constant pressure ([1]; 333.15 K, x1 = 0.2): 167.8 ± 4.1 J/K/mol | molar heat capacity at constant pressure ([1]; 333.15 K, x1 = 0.4): 249.9 ± 6.1 J/K/mol | molar heat capacity at constant pressure ([1]; 333.15 K, x1 = 0.5): 289.3 ± 7.1 J/K/mol | molar heat capacity at constant pressure ([1]; 333.15 K, x1 = 0.6): 328.3 ± 8 J/K/mol | molar heat capacity at constant pressure ([1]; 333.15 K, x1 = 0.8): 404.1 ± 9.9 J/K/mol | molar heat capacity at constant pressure ([1]; 338.15 K, x1 = 0.2): 169.1 ± 4.1 J/K/mol | molar heat capacity at constant pressure ([1]; 338.15 K, x1 = 0.4): 252.2 ± 6.2 J/K/mol | molar heat capacity at constant pressure ([1]; 338.15 K, x1 = 0.5): 292.5 ± 7.2 J/K/mol | molar heat capacity at constant pressure ([1]; 338.15 K, x1 = 0.6): 331.3 ± 8.1 J/K/mol | molar heat capacity at constant pressure ([1]; 338.15 K, x1 = 0.8): 407.6 ± 10 J/K/mol | molar heat capacity at constant pressure ([1]; 343.15 K, x1 = 0.2): 170.7 ± 4.2 J/K/mol | molar heat capacity at constant pressure ([1]; 343.15 K, x1 = 0.4): 254.8 ± 6.2 J/K/mol | molar heat capacity at constant pressure ([1]; 343.15 K, x1 = 0.5): 295.5 ± 7.2 J/K/mol | molar heat capacity at constant pressure ([1]; 343.15 K, x1 = 0.6): 334.9 ± 8.2 J/K/mol | molar heat capacity at constant pressure ([1]; 343.15 K, x1 = 0.8): 411.8 ± 10 J/K/mol | molar heat capacity at constant pressure ([1]; 348.15 K, x1 = 0.2): 172.2 ± 4.2 J/K/mol | molar heat capacity at constant pressure ([1]; 348.15 K, x1 = 0.4): 257.4 ± 6.3 J/K/mol | molar heat capacity at constant pressure ([1]; 348.15 K, x1 = 0.5): 298.5 ± 7.3 J/K/mol | molar heat capacity at constant pressure ([1]; 348.15 K, x1 = 0.6): 338.2 ± 8.3 J/K/mol | molar heat capacity at constant pressure ([1]; 348.15 K, x1 = 0.8): 416 ± 10 J/K/mol | molar heat capacity at constant pressure ([1]; 353.15 K, x1 = 0.2): 173.9 ± 4.3 J/K/mol | molar heat capacity at constant pressure ([1]; 353.15 K, x1 = 0.4): 260.2 ± 6.4 J/K/mol | molar heat capacity at constant pressure ([1]; 353.15 K, x1 = 0.5): 302.1 ± 7.4 J/K/mol | molar heat capacity at constant pressure ([1]; 353.15 K, x1 = 0.6): 342.1 ± 8.4 J/K/mol | molar heat capacity at constant pressure ([1]; 353.15 K, x1 = 0.8): 420.3 ± 10 J/K/mol

OCCCOCCCO [4-oxa-1,7-heptanediol]
molar heat capacity at constant pressure ([2]; 303.15 K): 329 ± 6 J/K/mol | molar heat capacity at constant pressure ([2]; 313.15 K): 335.9 ± 5.6 J/K/mol | molar heat capacity at constant pressure ([2]; 323.15 K): 342 ± 5.5 J/K/mol | molar heat capacity at constant pressure ([2]; 333.15 K): 348.5 ± 5.4 J/K/mol | molar heat capacity at constant pressure ([2]; 343.15 K): 355.1 ± 5.5 J/K/mol | molar heat capacity at constant pressure ([2]; 353.15 K): 362.6 ± 5.6 J/K/mol
